Patent US9255090B2, “Heterocyclyl derivatives and their use as prostaglandin D2 receptor modulators” (Actelion Pharmaceuticals Ltd., priority 2012, dated 2016)

Experiments:
[1] = biological target: hCRTH2 receptor (Homo sapiens (Human), UniProt Q9Y5Y4); test: hCRTH2 receptor membranes radioligand (3H-PGD2) displacement assay; type: binding; details: 3H-PGD2 radioligand displacement, HEK293-hCRTH2 membranes
Method in brief: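 Compound was first mixed with buffer, then 3H-PGD2 was added at 2.5 nM, and the reaction was started with hCRTH2 membranes from HEK293 cells at 20 μg/well. After 90 min at room temperature, mixtures were filtered and washed with ice-cold buffer, and retained radioactivity was counted.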

[2] = test system: eosinophils; test: Eosinophil shape change assay with human plasma; type: cell-based; details: human plasma (50%), PGD2 100 nM activation, antagonistic activity
Text: Eosinophil Shape Change Assay with Human Plasma
After obtaining informed consent, blood samples were drawn by venipuncture according to the protocol approved by the ethics committee of Basel, Switzerland. Polymorphonuclear leukocytes (containing eosinophils, basophils and neutrophils) were isolated using the Polymorphprep™ method (Axis-Shield). […] The polymorphonuclear cell fraction was harvested and depleted for erythrocytes by hypotonic saline lysis.
The polymorphonuclear cells were resuspended in assay buffer (1×PBS with Ca^2+/Mg^2+ supplemented with 0.1% BSA, 10 mM HEPES, and 10 mM Glucose, pH 7.4) at 5×10^6 cells/ml and stained with anti-CD49d-APC ((APC=Allophycocyanin) for 1 hour at RT. Test compounds, at various concentrations, were preincubated 10 min in human plasma (anticoagulated with a thrombin inhibitor). Then, human plasma was added to the polymorphonuclear cells to 50% of final assay volume with polymorphonuclear cells at 4×10^6 cells/ml. After incubation for 10 minutes at 37° C., the polymorphonuclear cells were activated for 5 min at 37° C. by addition of PGD2 at 100 nM final concentration. Activation was stopped by addition of 0.5 ml paraformaldehyde (1%).
Immediately after fixation with paraformaldehyde, the samples were analyzed by FACSCanto flow cytometer (BD Biosciences) and target cells were identified by their forward-scatter (FSC) and side-scatter (SSC) characteristics. Eosinophils were identified by the anti-CD49d-APC signal and their characteristic side-scatter (SSC) profile. Shape change responses, indicative of eosinophil activation, were quantified as the percent of cells with an increased forward-scatter.

Sequence of hCRTH2 receptor (Q9Y5Y4 whole entry): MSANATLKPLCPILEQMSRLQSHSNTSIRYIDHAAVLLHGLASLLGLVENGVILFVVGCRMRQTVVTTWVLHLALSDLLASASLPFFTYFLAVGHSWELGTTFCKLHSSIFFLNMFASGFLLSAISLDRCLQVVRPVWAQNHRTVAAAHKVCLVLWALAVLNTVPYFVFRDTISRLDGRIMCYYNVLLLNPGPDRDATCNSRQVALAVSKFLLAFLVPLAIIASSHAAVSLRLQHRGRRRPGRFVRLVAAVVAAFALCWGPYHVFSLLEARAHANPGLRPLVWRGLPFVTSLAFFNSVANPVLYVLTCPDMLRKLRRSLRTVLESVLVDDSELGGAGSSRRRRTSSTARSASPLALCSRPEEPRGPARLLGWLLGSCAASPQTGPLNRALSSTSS

SMILES | IC50 [1] [nM] | IC50 ([2]; Homo sapiens, Eosinophil) [nM] | IC50 [2] [nM]
COc1ccc(CC(=O)O)cc1-c1ccc(F)c2c1CN(C(=O)CC1OCCc3ccccc31)CC2 (racemic) [Example 257] | 2.2 | 35 | –
CCOc1cc(CC(=O)O)ccc1-c1ccc(F)c2c1CN(C(=O)CC1OCCc3ccccc31)CC2 (stereo not shown) [Example 206, {3-Ethoxy-4-[5-fluoro-2-(2-isochroman-1-yl-acetyl)-1,2,3,4-tetrahydro-isoquinolin-8-yl]-phenyl}-acetic acid] | 2.4 | – | 14
CCOc1ccc(CC(=O)O)cc1-c1ccc(F)c2c1CN(C(=O)CC(C)(C)c1ccccc1)CC2 [Example 225, {4-Ethoxy-3-[5-fluoro-2-(3-methyl-3-phenyl-butyryl)-1,2,3,4-tetrahydro-isoquinolin-8-yl]-phenyl}-acetic acid] | 11.7 | 37 | –
CCOc1cc(CC(=O)O)ccc1-c1ccc(F)c2c1CN(C(=O)CC(C)c1ccccn1)CC2 (racemic) [Example 344] | 0.9 | 51 | –
CC(C)Oc1ccc(CC(=O)O)cc1-c1ccc(C#N)c2c1CN(C(=O)OCc1ccccc1)CC2 [Example 431, 8-(5-Carboxymethyl-2-isopropoxy-phenyl)-5-cyano-3,4-dihydro-1H-isoquinoline-2-carboxylic acid benzyl ester] | 1.4 | 47 | –
O=C(O)Cc1cc2c(c(-c3ccc(F)c4c3CN(C(=O)OCc3ccccc3)CC4)c1)OCCO2 [Example 168, 8-(7-Carboxymethyl-2,3-dihydro-benzo[1,4]dioxin-5-yl)-5-fluoro-3,4-dihydro-1H-isoquinoline-2-carboxylic acid benzyl ester] | 17.9 | 133 | –
COc1cc(CC(=O)O)ccc1-c1ccc(F)c2c1CN(C(=O)C[C@@H](C)c1ccccc1)CC2 [Example 189, {4-[5-Fluoro-2-((R)-3-phenyl-butyryl)-1,2,3,4-tetrahydro-isoquinolin-8-yl]-3-methoxy-phenyl}-acetic acid] | 1.04 | 62 | –
COc1ccc(CC(=O)O)cc1-c1ccc(F)c2c1CN(C(=O)CC1CCOc3ccccc31)CC2 (racemic) [Example 262] | 8.4 | 66 | –
CCOc1ccc(CC(=O)O)cc1-c1ccc(F)c2c1CN(C(=O)OCCc1ccccc1)CC2 [Example 373, 8-(5-Carboxymethyl-2-ethoxy-phenyl)-5-fluoro-3,4-dihydro-1H-isoquinoline-2-carboxylic acid phenethyl ester] | 1.7 | 42 | –
COc1cc(CC(=O)O)ccc1-c1ccc(F)c2c1CN(C(=O)CCc1ccccc1C)CC2 [Example 194, {4-[5-Fluoro-2-(3-o-tolyl-propionyl)-1,2,3,4-tetrahydro-isoquinolin-8-yl]-3-methoxy-phenyl}-acetic acid] | 0.75 | 188 | –
COc1ccc(CC(=O)O)cc1-c1ccc(F)c2c1CN(C(=O)CCCc1ccccc1F)CC2 [Example 45, (3-{5-Fluoro-2-[4-(2-fluoro-phenyl)-butyryl]-1,2,3,4-tetrahydro-isoquinolin-8-yl}-4-methoxy-phenyl)-acetic acid] | 2.9 | 64 | –
CCOc1cc(CC(=O)O)ccc1-c1ccc(F)c2c1CN(C(=O)OCc1ccccc1F)CC2 [Example 406, 8-(4-Carboxymethyl-2-ethoxy-phenyl)-5-fluoro-3,4-dihydro-1H-isoquinoline-2-carboxylic acid 2-fluoro-benzyl ester] | 7.7 | 10 | –
COc1ccc(CC(=O)O)cc1-c1ccc(F)c2c1CN(C(=O)COCc1ccccc1Cl)CC2 [Example 58, (3-{2-[2-(2-Chloro-benzyloxy)-acetyl]-5-fluoro-1,2,3,4-tetrahydro-isoquinolin-8-yl}-4-methoxy-phenyl)-acetic acid] | 3.57 | 122 | –
COc1ccc(CC(=O)O)cc1-c1ccc(F)c2c1CN(C(=O)CCOc1ccc(F)cc1)CC2 [Example 42, (3-{5-Fluoro-2-[3-(4-fluoro-phenoxy)-propionyl]-1,2,3,4-tetrahydro-isoquinolin-8-yl}-4-methoxy-phenyl)-acetic acid] | 8.76 | 118 | –
CCOc1cc(CC(=O)O)ccc1-c1ccc(F)c2c1CN(C(=O)O[C@@H](C)c1ccccc1)CC2 [Example 389, 8-(4-Carboxymethyl-2-ethoxy-phenyl)-5-fluoro-3,4-dihydro-1H-isoquinoline-2-carboxylic acid (S)-1-phenyl-ethyl ester] | 16.7 | 122 | –

Now from value to compound:

IC50 [1] [nM] | IC50 ([2]; Homo sapiens, Eosinophil) [nM] | IC50 [2] [nM] | SMILES
1 | 17 | – | CCOc1cc(CC(=O)O)ccc1-c1ccc(F)c2c1CN(C(=O)CC1OCCc3ccccc31)CC2 (stereo not shown) [Example 205, {3-Ethoxy-4-[5-fluoro-2-(2-isochroman-1-yl-acetyl)-1,2,3,4-tetrahydro-isoquinolin-8-yl]-phenyl}-acetic acid]
0.6 | 15 | – | CCOc1cc(CC(=O)O)ccc1-c1ccc(F)c2c1CN(C(=O)CC(C)(C)c1ccccc1)CC2 [Example 238, {3-Ethoxy-4-[5-fluoro-2-(3-methyl-3-phenyl-butyryl)-1,2,3,4-tetrahydro-isoquinolin-8-yl]-phenyl}-acetic acid]
8.2 | 10 | – | CCOc1ccc(CC(=O)O)cc1-c1ccc(F)c2c1CN(C(=O)CC1OCCc3ccccc31)CC2 (racemic) [Example 224]
0.8 | 12 | – | CCOc1cc(CC(=O)O)ccc1-c1ccc(F)c2c1CN(C(=O)CC1CCOc3ccccc31)CC2 (racemic) [Example 236]
9.17 | 146 | – | COc1ccc(CC(=O)O)cc1-c1ccc(C#N)c2c1CN(C(=O)OCc1ccccc1)CC2 [Example 169, 8-(5-Carboxymethyl-2-methoxy-phenyl)-5-cyano-3,4-dihydro-1H-isoquinoline-2-carboxylic acid benzyl ester]
5.89 | 404 | – | COc1ccc(CC(=O)O)cc1-c1c(F)cc(F)c2c1CN(C(=O)OCc1ccccc1)CC2 [Example 39, 8-(5-Carboxymethyl-2-methoxy-phenyl)-5,7-difluoro-3,4-dihydro-1H-isoquinoline-2-carboxylic acid benzyl ester]
2.64 | 13 | – | COc1ccc(CC(=O)O)cc1-c1ccc(F)c2c1CN(C(=O)[C@@H]1C[C@H]1c1ccccc1)CC2 (racemic) [Example 60, (±)-{3-[5-Fluoro-2-(trans-2-phenyl-cyclopropanecarbonyl)-1,2,3,4-tetrahydro-isoquinolin-8-yl]-4-methoxy-phenyl}-acetic acid]
26.4 | 21 | – | CCOc1ccc(CC(=O)O)cc1-c1ccc(F)c2c1CN(C(=O)CC1(c3ccccc3)CC1)CC2 [Example 222, (4-Ethoxy-3-{5-fluoro-2-[2-(1-phenyl-cyclopropyl)-acetyl]-1,2,3,4-tetrahydro-isoquinolin-8-yl}-phenyl)-acetic acid]
5.5 | 46 | – | CCOc1ccc(CC(=O)O)cc1-c1ccc(F)c2c1CN(C(=O)O[C@@H](C)c1ccccc1)CC2 [Example 368, 8-(5-Carboxymethyl-2-ethoxy-phenyl)-5-fluoro-3,4-dihydro-1H-isoquinoline-2-carboxylic acid (S)-1-phenyl-ethyl ester]
3.64 | 12 | – | COc1ccc(CC(=O)O)cc1-c1ccc(F)c2c1CN(C(=O)[C@@H]1C[C@H]1c1ccccc1F)CC2 (racemic) [Example 5, (±)-(3-{5-Fluoro-2-[trans-2-(2-fluoro-phenyl)-cyclopropanecarbonyl]-1,2,3,4-tetrahydro-isoquinolin-8-yl}-4-methoxy-phenyl)-acetic acid]
7.3 | 20 | – | CCOc1cc(CC(=O)O)ccc1-c1ccc(F)c2c1CN(C(=O)CCc1cccc(C)n1)CC2 [Example 321, (3-Ethoxy-4-{5-fluoro-2-[3-(6-methyl-pyridin-2-yl)-propionyl]-1,2,3,4-tetrahydro-isoquinolin-8-yl}-phenyl)-acetic acid]
0.53 | 8 | – | COc1cc(CC(=O)O)ccc1-c1ccc(F)c2c1CN(C(=O)CC(C)(C)c1ccccc1)CC2 [Example 188, {4-[5-Fluoro-2-(3-methyl-3-phenyl-butyryl)-1,2,3,4-tetrahydro-isoquinolin-8-yl]-3-methoxy-phenyl}-acetic acid]
7.94 | 141 | – | CC(C)Oc1ccc(OCC(=O)O)cc1-c1ccc(F)c2c1CN(C(=O)OCc1ccccc1)CC2 [Example 163, 8-(5-Carboxymethoxy-2-isopropoxy-phenyl)-5-fluoro-3,4-dihydro-1H-isoquinoline-2-carboxylic acid benzyl ester]
8 | 52 | – | COc1ccc(CC(=O)O)cc1-c1ccc(F)c2c1CN(C(=O)CCc1c(C)[nH]c3ccccc13)CC2 [Example 61, (3-{5-Fluoro-2-[3-(2-methyl-1H-indol-3-yl)-propionyl]-1,2,3,4-tetrahydro-isoquinolin-8-yl}-4-methoxy-phenyl)-acetic acid]
